Patent US10981917B2, “Heterocyclic compound, its preparation method, and pharmaceutical composition comprising the same” (Daewoong Pharmaceutical Co., Ltd., priority 2017, dated 2021)

Biological target: PRS (prolyl-tRNA synthetase) protein, PRS portion of EPRS (Homo sapiens (Human), UniProt P07814)
Assay: PRS enzyme activity inhibition experiment ([3H]proline, liquid scintillation)
Format: biochemical
Settings: purified PRS protein, 37° C. for 5 to 10 minutes
Description: In order to confirm the biological activities of the compounds prepared in Examples, % inhibition or IC50 values of PRS enzyme ([…]) activities were calculated.
Specifically, the portion corresponding to PRS in cDNA of EPRS was subcloned, and the obtained high-purity PRS protein was purified and used in the experiment. The compounds (1 μM) prepared in Examples were added into the reaction buffer (20 mM KPO4 (pH 7.4), 6 mM MgAc, 5 mM ATP, […] tRNA, 0.5 mM DTT, […][^3H]proline (1 mCi/mL)) and allowed to react at 37° C. for 5 to 10 minutes. The reaction was terminated with 3M paper that was in advance dried by addition of 5% TCA. The radioactivity was measured using a liquid scintillation counter.
% Inhibition and IC50 values of the respective compounds were calculated and analyzed using Microsoft Excel or Sigma Plot 8.0. In Tables 1 to 3, the results are divided into A, B and C according to the range of IC50. The case where the derived IC50 is 100 nM or less is represented by “A”, the case where the IC50 is 100 to 500 nM is represented by “B”, and the case where the IC50 is 500 nM or higher is represented by “C”.

Sequence of PRS (prolyl-tRNA synthetase) protein, PRS portion of EPRS (P07814 1007-1512): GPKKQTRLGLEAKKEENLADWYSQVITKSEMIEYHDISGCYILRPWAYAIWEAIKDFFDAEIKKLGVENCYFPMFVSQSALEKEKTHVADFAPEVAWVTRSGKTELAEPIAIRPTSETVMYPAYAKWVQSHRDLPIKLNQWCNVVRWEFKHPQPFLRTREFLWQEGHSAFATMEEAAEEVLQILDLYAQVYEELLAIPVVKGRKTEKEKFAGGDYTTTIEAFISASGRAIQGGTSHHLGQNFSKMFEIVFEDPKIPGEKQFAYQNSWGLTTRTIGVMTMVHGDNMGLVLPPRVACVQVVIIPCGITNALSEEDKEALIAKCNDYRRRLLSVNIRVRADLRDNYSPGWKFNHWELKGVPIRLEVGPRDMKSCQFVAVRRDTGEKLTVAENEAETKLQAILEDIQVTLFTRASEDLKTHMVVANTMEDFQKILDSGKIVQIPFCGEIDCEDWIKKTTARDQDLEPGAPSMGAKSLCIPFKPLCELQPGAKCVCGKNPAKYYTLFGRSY

`O[C@H]1CCCN[C@@H]1CCCn1cnc2ccc(Cl)cc21` [Example 1, (2R,3S)-2-(3-(6-chloro-1H-benzo[d]imidazol-1-yl)propyl)piperidin-3-ol] and `O[C@H]1CCCN[C@@H]1CCCn1cnc2cc(Cl)ccc21` [Example 11, (2R,3S)-2-(3-(5-chloro-1H-benzo[d]imidazol-1-yl)propyl)piperidin-3-ol] fall in the same range of IC50: 0.1 to 0.5 µM for the first, 0.1 to 0.5 µM for the second.

`O[C@H]1CCCN[C@@H]1CCCn1cnc2c(Br)cccc21` [Example 2, (2R,3S)-2-(3-(4-bromo-1H-benzo[d]imidazol-1-yl)propyl)piperidin-3-ol] and `O[C@H]1CCCN[C@@H]1CCCn1cnc2c(F)cccc21` [Example 6, (2R,3S)-2-(3-(4-fluoro-1H-benzo[d]imidazol-1-yl)propyl)piperidin-3-ol] cannot be ordered by IC50: 0.1 to 0.5 µM for the first, ≥ 0.5 µM for the second.

`O[C@H]1CCCN[C@@H]1CCCn1cnc2cc(Br)ccc21` [Example 3, (2R,3S)-2-(3-(5-bromo-1H-benzo[d]imidazol-1-yl)propyl)piperidin-3-ol] and `O[C@H]1CCCN[C@@H]1CCCn1cnc2ccc(Br)cc21` [Example 4, (2R,3S)-2-(3-(6-bromo-1H-benzo[d]imidazol-1-yl)propyl)piperidin-3-ol] cannot be ordered by IC50: ≥ 0.5 µM for the first, 0.1 to 0.5 µM for the second.

`O[C@H]1CCCN[C@@H]1CCCn1cnc2cccc(Br)c21` [Example 5, (2R,3S)-2-(3-(7-bromo-1H-benzo[d]imidazol-1-yl)propyl)piperidin-3-ol] and `O[C@H]1CCCN[C@@H]1CCCn1cnc2cccc(F)c21` [Example 9, (2R,3S)-2-(3-(7-fluoro-1H-benzo[d]imidazol-1-yl)propyl)piperidin-3-ol] cannot be ordered by IC50: 0.1 to 0.5 µM for the first, ≥ 0.5 µM for the second.

`O[C@H]1CCCN[C@@H]1CCCn1cnc2cc(F)ccc21` [Example 7, (2R,3S)-2-(3-(5-fluoro-1H-benzo[d]imidazol-1-yl)propyl)piperidin-3-ol] and `O[C@H]1CCCN[C@@H]1CCCn1cnc2ccc(F)cc21` [Example 8, (2R,3S)-2-(3-(6-fluoro-1H-benzo[d]imidazol-1-yl)propyl)piperidin-3-ol] cannot be ordered by IC50: 0.1 to 0.5 µM for the first, ≥ 0.5 µM for the second.

`O[C@H]1CCCN[C@@H]1CCCn1cnc2c(Cl)cccc21` [Example 10, (2R,3S)-2-(3-(4-chloro-1H-benzo[d]imidazol-1-yl)propyl)piperidin-3-ol] and `O[C@H]1CCCN[C@@H]1CCCn1cnc2c(Cl)c(Cl)ccc21` [Example 40, (2R,3S)-2-(3-(4,5-dichloro-1H-benzo[d]imidazol-1-yl)propyl)piperidin-3-ol] cannot be ordered by IC50: 0.1 to 0.5 µM for the first, ≤ 0.1 µM for the second.

`O[C@H]1CCCN[C@@H]1CCCn1cnc2cccc(Cl)c21` [Example 12, (2R,3S)-2-(3-(7-chloro-1H-benzo[d]imidazol-1-yl)propyl)piperidin-3-ol] and `O[C@H]1CCCN[C@@H]1CCCn1cnc2cccc(C(F)(F)F)c21` [Example 16, (2R,3S)-2-(3-(7-(trifluoromethyl)-1H-benzo[d]imidazol-1-yl)propyl)piperidin-3-ol] fall in the same range of IC50: 0.1 to 0.5 µM for the first, 0.1 to 0.5 µM for the second.

`Cc1ccc2ncn(CCC[C@H]3NCCC[C@@H]3O)c2c1` [Example 13, (2R,3S)-2-(3-(6-methyl-1H-benzo[d]imidazol-1-yl)propyl)piperidin-3-ol] and `Cc1ccc2c(c1)ncn2CCC[C@H]1NCCC[C@@H]1O` [Example 14, (2R,3S)-2-(3-(5-methyl-1H-benzo[d]imidazol-1-yl)propyl)piperidin-3-ol] cannot be ordered by IC50: ≥ 0.5 µM for the first, ≥ 0.5 µM for the second.

`O[C@H]1CCCN[C@@H]1CCCn1cnc2ccc(C(F)(F)F)cc21` [Example 15, (2R,3S)-2-(3-(6-(trifluoromethyl)-1H-benzo[d]imidazol-1-yl)propyl)piperidin-3-ol] and `O[C@H]1CCCN[C@@H]1CCCn1cnc2cccc(OC(F)(F)F)c21` [Example 17, (2R,3S)-2-(3-(7-(trifluoromethoxy)-1H-benzo[d]imidazol-1-yl)propyl)piperidin-3-ol] cannot be ordered by IC50: 0.1 to 0.5 µM for the first, ≥ 0.5 µM for the second.

`O[C@H]1CCCN[C@@H]1CCCn1cnc2c(N3CCCC3)cccc21` [Example 18, (2R,3S)-2-(3-(4-(pyrrolidin-1-yl)-1H-benzo[d]imidazol-1-yl)propyl)piperidin-3-ol] and `O[C@H]1CCCN[C@@H]1CCCn1cnc2c(N3CCCCC3)cccc21` [Example 19, (2R,3S)-2-(3-(4-(piperidin-1-yl)-1H-benzo[d]imidazol-1-yl)propyl)piperidin-3-ol] cannot be ordered by IC50: ≥ 0.5 µM for the first, ≥ 0.5 µM for the second.

`O[C@H]1CCCN[C@@H]1CCCn1cnc2c(-c3cccc(F)c3)cccc21` [Example 20, (2R,3S)-2-(3-(4-(3-fluorophenyl)-1H-benzo[d]imidazol-1-yl)propyl)piperidin-3-ol] and `O[C@H]1CCCN[C@@H]1CCCn1cnc2c(-c3cccc(Cl)c3)cccc21` [Example 21, (2R,3S)-2-(3-(4-(3-chlorophenyl)-1H-benzo[d]imidazol-1-yl)propyl)piperidin-3-ol] cannot be ordered by IC50: ≥ 0.5 µM for the first, ≥ 0.5 µM for the second.

Going from `O[C@H]1CCCN[C@@H]1CCCn1cnc2cc(-c3cccc(F)c3)ccc21` [Example 22, (2R,3S)-2-(3-(5-(3-fluorophenyl)-1H-benzo[d]imidazol-1-yl)propyl)piperidin-3-ol] to `O[C@H]1CCCN[C@@H]1CCCn1cnc2ccc(-c3cccc(F)c3)cc21` [Example 24, (2R,3S)-2-(3-(6-(3-fluorophenyl)-1H-benzo[d]imidazol-1-yl)propyl)piperidin-3-ol], the IC50 falls from ≥ 0.5 µM to ≤ 0.1 µM.

`O[C@H]1CCCN[C@@H]1CCCn1cnc2ccc(-c3ccccc3F)cc21` [Example 23, (2R,3S)-2-(3-(6-(2-fluorophenyl)-1H-benzo[d]imidazol-1-yl)propyl)piperidin-3-ol] and `O[C@H]1CCCN[C@@H]1CCCn1cnc2ccc(-c3ccc(F)cc3)cc21` [Example 25, (2R,3S)-2-(3-(6-(4-fluorophenyl)-1H-benzo[d]imidazol-1-yl)propyl)piperidin-3-ol] cannot be ordered by IC50: 0.1 to 0.5 µM for the first, ≥ 0.5 µM for the second.

`O[C@H]1CCCN[C@@H]1CCCn1cnc2cccc(-c3ccccc3F)c21` [Example 26, (2R,3S)-2-(3-(7-(2-fluorophenyl)-1H-benzo[d]imidazol-1-yl)propyl)piperidin-3-ol] and `O[C@H]1CCCN[C@@H]1CCCn1cnc2cccc(-c3cccc(F)c3)c21` [Example 27, (2R,3S)-2-(3-(7-(3-fluorophenyl)-1H-benzo[d]imidazol-1-yl)propyl)piperidin-3-ol] cannot be ordered by IC50: ≥ 0.5 µM for the first, 0.1 to 0.5 µM for the second.

`O[C@H]1CCCN[C@@H]1CCCn1cnc2cccc(-c3ccc(F)cc3)c21` [Example 28, (2R,3S)-2-(3-(7-(4-fluorophenyl)-1H-benzo[d]imidazol-1-yl)propyl)piperidin-3-ol] and `O[C@H]1CCCN[C@@H]1CCCn1cnc2cccc(-c3cn[nH]c3)c21` [Example 31, (2R,3S)-2-(3-(7-(1H-pyrazol-4-yl)-1H-benzo[d]imidazol-1-yl)propyl)piperidin-3-ol] fall in the same range of IC50: 0.1 to 0.5 µM for the first, 0.1 to 0.5 µM for the second.

`O[C@H]1CCCN[C@@H]1CCCn1cnc2cc(-c3cn[nH]c3)ccc21` [Example 29, (2R,3S)-2-(3-(5-(1H-pyrazol-4-yl)-1H-benzo[d]imidazol-1-yl)propyl)piperidin-3-ol] and `O[C@H]1CCCN[C@@H]1CCCn1cnc2ccc(-c3cn[nH]c3)cc21` [Example 30, (2R,3S)-2-(3-(6-(1H-pyrazol-4-yl)-1H-benzo[d]imidazol-1-yl)propyl)piperidin-3-ol] cannot be ordered by IC50: ≥ 0.5 µM for the first, 0.1 to 0.5 µM for the second.

`O[C@H]1CCCN[C@@H]1CCCn1cnc2cc(F)c(Cl)cc21` [Example 32, (2R,3S)-2-(3-(6-chloro-5-fluoro-1H-benzo[d]imidazol-1-yl)propyl)piperidin-3-ol] and `O[C@H]1CCCN[C@@H]1CCCn1cnc2cc(Cl)c(F)cc21` [Example 34, (2R,3S)-2-(3-(5-chloro-6-fluoro-1H-benzo[d]imidazol-1-yl)propyl)piperidin-3-ol] fall in the same range of IC50: 0.1 to 0.5 µM for the first, 0.1 to 0.5 µM for the second.

`O[C@H]1CCCN[C@@H]1CCCn1cnc2cc(F)c(Br)cc21` [Example 33, (2R,3S)-2-(3-(6-bromo-5-fluoro-1H-benzo[d]imidazol-1-yl)propyl)piperidin-3-ol] and `O[C@H]1CCCN[C@@H]1CCCn1cnc2cc(Br)c(F)cc21` [Example 35, (2R,3S)-2-(3-(5-bromo-6-fluoro-1H-benzo[d]imidazol-1-yl)propyl)piperidin-3-ol] fall in the same range of IC50: 0.1 to 0.5 µM for the first, 0.1 to 0.5 µM for the second.

`O[C@H]1CCCN[C@@H]1CCCn1cnc2cc(Cl)c(Br)cc21` [Example 36, (2R,3S)-2-(3-(6-bromo-5-chloro-1H-benzo[d]imidazol-1-yl)propyl)piperidin-3-ol] and `COc1cc2ncn(CCC[C@H]3NCCC[C@@H]3O)c2cc1Cl` [Example 37, (2R,3S)-2-(3-(6-chloro-5-methoxy-1H-benzo[d]imidazol-1-yl)propyl)piperidin-3-ol] fall in the same range of IC50: 0.1 to 0.5 µM for the first, 0.1 to 0.5 µM for the second.

`COc1cc2ncn(CCC[C@H]3NCCC[C@@H]3O)c2cc1F` [Example 38, (2R,3S)-2-(3-(6-fluoro-5-methoxy-1H-benzo[d]imidazol-1-yl)propyl)piperidin-3-ol] and `Cc1cc2c(cc1F)ncn2CCC[C@H]1NCCC[C@@H]1O` [Example 39, (2R,3S)-2-(3-(5-fluoro-6-methyl-1H-benzo[d]imidazol-1-yl)propyl)piperidin-3-ol] cannot be ordered by IC50: ≥ 0.5 µM for the first, 0.1 to 0.5 µM for the second.

`O[C@H]1CCCN[C@H]1CCCn1cnc2c(Cl)c(Cl)ccc21` [Example 41, (2S,3S)-2-(3-(4,5-dichloro-1H-benzo[d]imidazol-1-yl)propyl)piperidin-3-ol] and `O[C@@H]1CCCN[C@H]1CCCn1cnc2c(Cl)c(Cl)ccc21` [Example 42, (2S,3R)-2-(3-(4,5-dichloro-1H-benzo[d]imidazol-1-yl)propyl)piperidin-3-ol] cannot be ordered by IC50: ≥ 0.5 µM for the first, ≥ 0.5 µM for the second.
